Experimental data: article doi:10.1101/2020.02.10.942029v1 (biorxiv, 2020)

Target: human CatSper (CatSper channel, cation channel of sperm) (Homo sapiens, UniProt Q7RTX7+Q86XQ3+Q8NEC5+Q96P56)
Assay: whole-cell patch clamp of human sperm
Assay type: cell-based
Conditions: activator; 20 μM, NaDVF, pHi 7.3, room temperature

`CCCCCCOC(=O)[C@]1(O)C[C@@H]2O[C@@]1(C)n1c3ccccc3c3c4c(c5c6ccccc6n2c5c31)C(=O)NC4` [KT 5720] was tested, and the “fold current enhancement at -80 mV” value was 1.48 ± 0.47 fold.
